Data from patent publication US20240408167A1, “COMPOSITION FOR TREATING OCULAR DISEASES CONTAINING PEPTIDE” (Encuragen Inc., priority 2023, published 2024).
Structures can show the parent of a compound that is named as a salt. Where two headings read alike, the source gives them in different places.

Test system: BALB/3T3 clone A31 cells
Experiment: cells
Assay type: cell-based
Conditions: for IC50: Mus musculus, light or radiation study, BALB/3T3 clone A31 cells, neutral red
Description: To evaluate the phototoxicity of (PEG)-BHD1028, the potential phototoxicity of (PEG)-BHD1028 was measured in the BALB/3T3 clone A31 cells after UV exposure. The test substance and the positive control group (chlorpromazine hydrochloride; CPZ) were dissolved in a Hank's Balanced Salt Solution (HBSS) and then diluted with a Hank's Balanced Salt Solution (HBSS). The cells were trypsinized and counted. Thereafter, 1×10^4 cells per well were seeded in a 96-well plate and cultured for approximately 24 hours before treating the test samples. One hour after the sample treatment, the plate was irradiated with a UV irradiation system (UVA, 365 nm). After UV irradiation, the plate was incubated for 24 hours. The cell viability of the cultured cells was confirmed by measuring the absorbance at 540 nm using the neutral red staining method.

Compound: CN(C)CCCN1c2ccccc2Sc2ccc(Cl)cc21 [CPZ, chlorpromazine hydrochloride, reference compound]
- phototoxicity classification by PIF and MPE: positive results
- IC50 (UVA 365 nm irradiation, read-out: IC50 UV (+Irr)): 1.26 µg/mL
- IC50 (without UV irradiation, read-out: IC50 UV (−Irr)): 37.5 µg/mL
- MPE (mean photo effect) (mouse, 24 h): 0.489
- PIF (photo irradiation factor) (mouse, 24 h): 29.668
